# pKi: −log10 of the molar value.
# Target: T1, hCRTH2 (Homo sapiens, UniProt Q9Y5Y4)
# T1 construct: expressed in transfected cells; host or cells: HEK (human embryonic kidney) cells expressing hCRTH2
# T1 sequence (Q9Y5Y4 1-395): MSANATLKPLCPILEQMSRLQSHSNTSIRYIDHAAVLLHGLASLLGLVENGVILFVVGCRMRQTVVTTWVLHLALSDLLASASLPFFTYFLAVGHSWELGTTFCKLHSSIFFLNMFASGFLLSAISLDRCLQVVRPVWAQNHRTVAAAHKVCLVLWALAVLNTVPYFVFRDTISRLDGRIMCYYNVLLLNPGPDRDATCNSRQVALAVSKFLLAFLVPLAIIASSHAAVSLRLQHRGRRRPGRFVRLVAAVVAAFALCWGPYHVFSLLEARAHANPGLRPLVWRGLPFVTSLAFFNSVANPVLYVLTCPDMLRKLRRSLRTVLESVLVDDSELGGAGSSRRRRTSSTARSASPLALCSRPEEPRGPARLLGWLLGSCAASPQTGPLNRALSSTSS
# Experiment: Radioligand Binding Assay B (scintillation proximity assay, [3H]-PGD2, HEK-hCRTH2 membranes)
# Settings: Radioligand Binding Assay B (SPA), values in text
# Procedure: Radioligand binding also was performed using scintillation proximity assay (SPA) technology in a similar way as described above in Radioligand Binding Assay A with minor modification. Assays were done at room temperature in 10 mM HEPES pH 7.4, 1 mM EDTA containing 2 mM MnCl2 and 16 nM [^3H]-PGD2 (PerkinElmer, Waltham, Mass.) (164 Ci mmol^−1), in a final volume of 0.05 mL. Competing ligands were diluted in dimethylsulfoxide (Me2SO) and added using very low volumes (50 nL). The reaction was initiated by the addition of a mixture of 3.52 μg of membrane protein prepared from a human embryonic kidney (HEK)-hCRTH2 cell line adhered to 140 ug of wheatgerm agglutinin SPA beads (PerkinElmer). Total and non-specific binding were determined in the absence and the presence of 10 μM of a CRTH2 antagonist, respectively. The reaction was routinely conducted for 60 min at room temperature followed by centrifugation for 5 minutes at 1000 RPM. The radioactivity was measured with a TopCountNXT (PerkinElmer). Results determined using the SPA-based assay were similar to those from the filtration binding assay.
row,Compound,pKi
1,"O=C(O)CCCCc1cc2cc(C(=O)N[C@H]3CCOc4ccccc43)ccc2nc1-c1ccccc1 [Compound 1AL, (S)-5-(6-(chroman-4-ylcarbamoyl)-2-phenylquinolin-3-yl)pentanoic acid]",7.65
2,"O=C(O)CCCCc1cc2cc(C(=O)N3CCN(c4c(Cl)cncc4Cl)CC3)ccc2nc1-c1ccccc1 [Compound 1AY, 5-(6-(4-(3,5-dichloropyridin-4-yl)piperazine-1-carbonyl)-2-phenylquinolin-3-yl)pentanoic acid]",7.85
3,"O=C(O)CCCCc1cc2cc(C(=O)N3CCN(c4ccccc4)CC3)ccc2nc1-c1ccc(F)cc1 [Compound 5AF, 5-(2-(4-fluorophenyl)-6-(4-phenylpiperazine-1-carbonyl)quinolin-3-yl)pentanoic acid]",7.94

# Same assay, conditions: Table B, Radioligand Binding Assay B (SPA), rated A-D
row,Compound,pKi
1,"O=C(O)CCCCc1cc2cc(C(=O)N[C@H]3CCOc4ccccc43)ccc2nc1-c1ccccc1 [Compound 1AL, (S)-5-(6-(chroman-4-ylcarbamoyl)-2-phenylquinolin-3-yl)pentanoic acid]",6.70 to 7.70
2,"O=C(O)CCCCc1cc2cc(C(=O)N3CC[C@H](c4ccc(F)cc4)C3)ccc2nc1-c1ccccc1 [Compound 1AM, (R)-5-(6-(3-(4-fluorophenyl)pyrrolidine-1-carbonyl)-2-phenylquinolin-3-yl)pentanoic acid]",6.70 to 7.70
3,"O=C(O)CCCCc1cc2cc(C(=O)N3CC[C@@H](c4ccc(F)cc4)C3)ccc2nc1-c1ccccc1 [Compound 1AN, (S)-5-(6-(3-(4-fluorophenyl)pyrrolidine-1-carbonyl)-2-phenylquinolin-3-yl)pentanoic acid]",7.70 to 8.68
4,"CC1(C)CC(NC(=O)c2ccc3nc(-c4ccccc4)c(CCCCC(=O)O)cc3c2)c2ccccc2O1 (stereo not shown) [Compound 1AP, 5-(6-((2,2-dimethylchroman-4-yl)carbamoyl)-2-phenylquinolin-3-yl)pentanoic acid]",6.70 to 7.70
5,"CC1(C)CCC(NC(=O)c2ccc3nc(-c4ccccc4)c(CCCCC(=O)O)cc3c2)c2ccccc21 (stereo not shown) [Compound 1AQ, 5-(6-((4,4-dimethyl-1,2,3,4-tetrahydronaphthalen-1-yl)carbamoyl)-2-phenylquinolin-3-yl)pentanoic acid]",7.70 to 8.68
6,"N#CC1(c2ccccc2)CCN(C(=O)c2ccc3nc(-c4ccccc4)c(CCCCC(=O)O)cc3c2)C1 (stereo not shown) [Compound 1AR, 5-(6-(3-cyano-3-phenylpyrrolidine-1-carbonyl)-2-phenylquinolin-3-yl)pentanoic acid]",7.70 to 8.68
7,"O=C(O)CCCCc1cc2cc(C(=O)NC3CC(=O)Nc4ccccc43)ccc2nc1-c1ccccc1 (stereo not shown) [Compound 1AS, 5-(6-((2-oxo-1,2,3,4-tetrahydroquinolin-4-yl)carbamoyl)-2-phenylquinolin-3-yl)pentanoic acid]",7.70 to 8.68
8,"CC(C)(NC(=O)c1ccc2nc(-c3ccccc3)c(CCCCC(=O)O)cc2c1)c1ccc(F)cc1 [Compound 1AT, 5-(6-((2-(4-fluorophenyl)propan-2-yl)carbamoyl)-2-phenylquinolin-3-yl)pentanoic acid]",6.70 to 7.70
9,"O=C(O)CCCCc1cc2cc(C(=O)N3CCC(n4c(=O)[nH]c5ccccc54)CC3)ccc2nc1-c1ccccc1 [Compound 1AU, 5-(6-(4-(2-oxo-2,3-dihydro-1H-benzo[d]imidazol-1-yl)piperidine-1-carbonyl)-2-phenylquinolin-3-yl)pentanoic acid]",6.70 to 7.70
10,"O=C(O)CCCCc1cc2cc(C(=O)N3CCC4(CC3)OCc3ccccc34)ccc2nc1-c1ccccc1 [Compound 1AV, 5-(2-phenyl-6-(3H-spiro[isobenzofuran-1,4′-piperidin]-1′-ylcarbonyl)quinolin-3-yl)pentanoic acid]",7.70 to 8.68
11,"O=C(O)CCCCc1cc2cc(C(=O)N3CCN(c4ccccn4)CC3)ccc2nc1-c1ccccc1 [Compound 1AW, 5-(2-phenyl-6-(4-(pyridin-2-yl)piperazine-1-carbonyl)quinolin-3-yl)pentanoic acid]",6.70 to 7.70
12,"N#Cc1cccnc1N1CCN(C(=O)c2ccc3nc(-c4ccccc4)c(CCCCC(=O)O)cc3c2)CC1 [Compound 1AX, 5-(6-(4-(3-cyanopyridin-2-yl)piperazine-1-carbonyl)-2-phenylquinolin-3-yl)pentanoic acid]",6.70 to 7.70
13,"O=C(O)CCCCc1cc2cc(C(=O)N3CCN(c4c(Cl)cncc4Cl)CC3)ccc2nc1-c1ccccc1 [Compound 1AY, 5-(6-(4-(3,5-dichloropyridin-4-yl)piperazine-1-carbonyl)-2-phenylquinolin-3-yl)pentanoic acid]",7.70 to 8.68
14,"N#Cc1ccccc1N1CCN(C(=O)c2ccc3nc(-c4ccccc4)c(CCCCC(=O)O)cc3c2)CC1 [Compound 1AZ, 5-(6-(4-(2-cyanophenyl)piperazine-1-carbonyl)-2-phenylquinolin-3-yl)pentanoic acid]",7.70 to 8.68
15,"O=C(O)CCCCc1cc2cc(C(=O)N3CCN(c4ccccc4)CC3)ccc2nc1-c1ccccc1 [Compound 1Ai, 5-(2-phenyl-6-(4-phenylpiperazine-1-carbonyl)quinolin-3-yl)pentanoic acid]",7.70 to 8.68
16,"O=C(O)CCCCc1cc2cc(C(=O)N[C@H]3COc4ccccc43)ccc2nc1-c1ccccc1 [Compound 1Ao, (R)-5-(6-((2,3-dihydrobenzofuran-3-yl)carbamoyl)-2-phenylquinolin-3-yl)pentanoic acid]",6.70 to 7.70

row,Compound,pKi
1,"O=C(O)CCCCc1cc2cc(C(=O)N3CCN(c4ccccc4Cl)CC3)ccc2nc1-c1ccccc1 [Compound 1BA, 5-(6-(4-(2-chlorophenyl)piperazine-1-carbonyl)-2-phenylquinolin-3-yl)pentanoic acid]",7.70 to 8.68
2,"Cc1ccccc1N1CCN(C(=O)c2ccc3nc(-c4ccccc4)c(CCCCC(=O)O)cc3c2)CC1 [Compound 1BB, 5-(2-phenyl-6-(4-(o-tolyl)piperazine-1-carbonyl)quinolin-3-yl)pentanoic acid]",7.70 to 8.68
3,"Cc1cccc(N2CCN(C(=O)c3ccc4nc(-c5ccccc5)c(CCCCC(=O)O)cc4c3)CC2)c1 [Compound 1BC, 5-(2-phenyl-6-(4-(m-tolyl)piperazine-1-carbonyl)quinolin-3-yl)pentanoic acid]",7.70 to 8.68
4,"COc1ccc(N2CCN(C(=O)c3ccc4nc(-c5ccccc5)c(CCCCC(=O)O)cc4c3)CC2)cc1 [Compound 1BD, 5-(6-(4-(4-methoxyphenyl)piperazine-1-carbonyl)-2-phenylquinolin-3-yl)pentanoic acid]",7.70 to 8.68
5,"O=C(O)CCCCc1cc2cc(C(=O)N[C@@H]3CCOc4ccccc43)ccc2nc1-c1ccc(F)cc1 [Compound 5AD, (R)-5-(6-(chroman-4-ylcarbamoyl)-2-(4-fluorophenyl)quinolin-3-yl)pentanoic acid]",7.70 to 8.68
6,"O=C(O)CCCCc1cc2cc(C(=O)N[C@@H]3CCCc4cc(F)ccc43)ccc2nc1-c1ccc(F)cc1 [Compound 5AE, (R)-5-(6-((6-fluoro-1,2,3,4-tetrahydronaphthalen-1-yl)carbamoyl)-2-(4-fluorophenyl)quinolin-3-yl)pentanoic acid]",7.70 to 8.68
7,"O=C(O)CCCCc1cc2cc(C(=O)N3CCN(c4ccccc4)CC3)ccc2nc1-c1ccc(F)cc1 [Compound 5AF, 5-(2-(4-fluorophenyl)-6-(4-phenylpiperazine-1-carbonyl)quinolin-3-yl)pentanoic acid]",7.70 to 8.68
8,"O=C(O)CCCCc1cc2cc(C(=O)N3CC(c4cccc(F)c4)C3)ccc2nc1-c1ccc(F)cc1 [Compound 5AG, 5-(2-(4-fluorophenyl)-6-(3-(3-fluorophenyl)azetidine-1-carbonyl)quinolin-3-yl)pentanoic acid]",6.70 to 7.70
9,"O=C(O)CCCCc1cc2cc(C(=O)N3CC[C@@H](c4ccccc4)C3)ccc2nc1-c1ccc(F)cc1 [Compound 5AH, (S)-5-(2-(4-fluorophenyl)-6-(3-phenylpyrrolidine-1-carbonyl)quinolin-3-yl)pentanoic acid]",7.70 to 8.68
10,"CC1(C)CC(NC(=O)c2ccc3nc(-c4ccc(F)cc4)c(CCCCC(=O)O)cc3c2)c2ccccc2O1 (stereo not shown) [Compound 5AJ, 5-(6-((2,2-dimethylchroman-4-yl)carbamoyl)-2-(4-fluorophenyl)quinolin-3-yl)pentanoic acid]",7.70 to 8.68
11,"CC1(C)CCC(NC(=O)c2ccc3nc(-c4ccc(F)cc4)c(CCCCC(=O)O)cc3c2)c2ccccc21 (stereo not shown) [Compound 5AK, 5-(6-((4,4-dimethyl-1,2,3,4-tetrahydronaphthalen-1-yl)carbamoyl)-2-(4-fluorophenyl)quinolin-3-yl)pentanoic acid]",7.70 to 8.68
12,"O=C(O)CCCCc1cc2cc(C(=O)NC3CC(=O)Nc4ccccc43)ccc2nc1-c1ccc(F)cc1 (stereo not shown) [Compound 5AL, 5-(2-(4-fluorophenyl)-6-((2-oxo-1,2,3,4-tetrahydroquinolin-4-yl)carbamoyl)quinolin-3-yl)pentanoic acid]",7.70 to 8.68
13,"O=C(O)CCCCc1cc2cc(C(=O)N3CC(c4ccccc4)C3)ccc2nc1-c1ccc(F)cc1 [Compound 5AM, 5-(2-(4-fluorophenyl)-6-(3-phenylazetidine-1-carbonyl)quinolin-3-yl)pentanoic acid]",7.70 to 8.68
14,"O=C(O)CCCCc1cc2cc(C(=O)NCc3ccccc3)ccc2nc1-c1ccc(F)cc1 [Compound 5AN, 5-(6-(benzylcarbamoyl)-2-(4-fluorophenyl)quinolin-3-yl)pentanoic acid]",6.70 to 7.70
15,"COc1ccccc1C1CCN(C(=O)c2ccc3nc(-c4ccc(F)cc4)c(CCCCC(=O)O)cc3c2)CC1 [Compound 5AP, 5-(2-(4-fluorophenyl)-6-(4-(2-methoxyphenyl)piperidine-1-carbonyl)quinolin-3-yl)pentanoic acid]",7.70 to 8.68
